From US8129521B2, “One pot synthesis of tetrazole derivatives of rapamycin” (Abbott Laboratories, priority 2005, dated 2012)

Key:
Type in all cases: physicochemical
[1] = Stability of zotarolimus on storage (potency over time, no anti-oxidant)
Method: Several lots of zotarolimus prepared by the one-pot methods lost significant potency over time. The potency loss was higher at increased temperature, but there was no apparent change in the impurity profile. Table 2 presents the potency of a lot of zotarolimus at various time intervals and temperature conditions. […] This loss was exacerbated in a sealed container when held at 40° C.—from 96.0% to 37.4% over just two months.

[2] = Zotarolimus stability with various concentrations of BHT
Method: A stability study was carried out to prevent this oxidation using phenolic anti-oxidants and identified BHT as a suitable compound. Tables 3 and 4 present stability data using BHT at various concentrations (% represented w/w) and temperatures.

[3] = Equilibration studies of pyran and oxepane forms of zotarolimus without buffer (acetonitrile/water, C-18 HPLC); settings: non-buffered, 66% acetonitrile in water
Method: Studies were also carried out under non-buffered conditions in a solvent mixture of acetonitrile/water. Multiple injections of zotarolimus were performed on a C-18 Altima column (Alltech Associates, Inc.; Deerfield, Ill.) using 66% acetonitrile in water in a non-buffered media. The pyran and oxepane forms were collected. These forms were re-injected on C-18 column to study the equilibrium ratio at various intervals. […] These observations confirmed that zotarolimus exists in an equilibrium mixture of […] pyran (1) vs. oxepane (2) forms.

- potency ([1]; storage 5° C. (sealed), 1 month after synthesis): 95.0%
- potency ([1]; storage 5° C. (sealed), 2 months after synthesis): 95.4%
- potency ([1]; storage 5° C. (sealed), 2 weeks after synthesis): 98.2%
- potency ([1]; storage 5° C. (sealed), 3 months after synthesis): 95.1%
- potency ([1]; storage 5° C. (sealed), Initial): 95.7%
- potency ([1]; storage 25° C. (sealed), 1 month after synthesis): 88.8%
- potency ([1]; storage 25° C. (sealed), 2 months after synthesis): 81.6%
- potency ([1]; storage 25° C. (sealed), 2 weeks after synthesis): 95.7%
- potency ([1]; storage 25° C. (sealed), 3 months after synthesis): 69.8%
- potency ([1]; storage 25° C. (sealed), Initial): 95.1%
- potency ([1]; storage 25° C. (unsealed), 1 month after synthesis): 91.6%
- potency ([1]; storage 25° C. (unsealed), 2 months after synthesis): 87.1%
- potency ([1]; storage 25° C. (unsealed), 2 weeks after synthesis): 98.0%
- potency ([1]; storage 25° C. (unsealed), 3 months after synthesis): 75.5%
- potency ([1]; storage 25° C. (unsealed), Initial): 95.5%
- potency ([1]; storage 40° C. (sealed), 1 month after synthesis): 61.9%
- potency ([1]; storage 40° C. (sealed), 2 months after synthesis): 37.4%
- potency ([1]; storage 40° C. (sealed), 2 weeks after synthesis): 81.1%
- potency ([1]; storage 40° C. (sealed), Initial): 96%
- stability at room temperature ([1]; without anti-oxidant): unstable at room temperature
- potency ([2]; 4° C., BHT 0.0%, 0 weeks): 97.2%
- potency ([2]; 4° C., BHT 0.0%, 2 weeks): 95.2%
- potency ([2]; 4° C., BHT 0.0%, 4 weeks): 96.4%
- potency ([2]; 4° C., BHT 0.0%, 6 weeks): 96.6%
- potency ([2]; 4° C., BHT 0.0%, 8 weeks): 97.5%
- potency ([2]; 4° C., BHT 0.0%, 12 weeks): 95.9%
- potency ([2]; 4° C., BHT 0.1%, 0 weeks): 96.7%
- potency ([2]; 4° C., BHT 0.1%, 2 weeks): 96.7%
- potency ([2]; 4° C., BHT 0.1%, 4 weeks): 97.3%
- potency ([2]; 4° C., BHT 0.1%, 6 weeks): 96.8%
- potency ([2]; 4° C., BHT 0.1%, 8 weeks): 96.9%
- potency ([2]; 4° C., BHT 0.1%, 12 weeks): 96.8%
- potency ([2]; 4° C., BHT 0.2%, 0 weeks): 96.3%
- potency ([2]; 4° C., BHT 0.2%, 2 weeks): 96.7%
- potency ([2]; 4° C., BHT 0.2%, 4 weeks): 97.5%
- potency ([2]; 4° C., BHT 0.2%, 6 weeks): 96.9%
- potency ([2]; 4° C., BHT 0.2%, 8 weeks): 96.9%
- potency ([2]; 4° C., BHT 0.2%, 12 weeks): 96.8%
- potency ([2]; 4° C., BHT 0.5%, 0 weeks): 96.5%
- potency ([2]; 4° C., BHT 0.5%, 2 weeks): 96.5%
- potency ([2]; 4° C., BHT 0.5%, 4 weeks): 96.2%
- potency ([2]; 4° C., BHT 0.5%, 6 weeks): 95.7%
- potency ([2]; 4° C., BHT 0.5%, 8 weeks): 96.9%
- potency ([2]; 4° C., BHT 1.0%, 0 weeks): 95.9%
- potency ([2]; 4° C., BHT 1.0%, 2 weeks): 96.3%
- potency ([2]; 4° C., BHT 1.0%, 4 weeks): 96.6%
- potency ([2]; 4° C., BHT 1.0%, 6 weeks): 96.1%
- potency ([2]; 4° C., BHT 1.0%, 8 weeks): 96.9%
- potency ([2]; 4° C., BHT 1.0%, 12 weeks): 95.5%
- potency ([2]; 40° C., BHT (w/w) 0.1%, 0 weeks): 96.7%
- potency ([2]; 40° C., BHT (w/w) 0.1%, 2 weeks): 96.5%
- potency ([2]; 40° C., BHT (w/w) 0.1%, 4 weeks): 96.9%
- potency ([2]; 40° C., BHT (w/w) 0.1%, 6 weeks): 96.1%
- potency ([2]; 40° C., BHT (w/w) 0.1%, 8 weeks): 96.2%
- potency ([2]; 40° C., BHT (w/w) 0.1%, 12 weeks): 95.6%
- potency ([2]; 40° C., BHT (w/w) 0.2%, 0 weeks): 96.3%
- potency ([2]; 40° C., BHT (w/w) 0.2%, 2 weeks): 96.6%
- potency ([2]; 40° C., BHT (w/w) 0.2%, 4 weeks): 97.2%
- potency ([2]; 40° C., BHT (w/w) 0.2%, 6 weeks): 97.1%
- potency ([2]; 40° C., BHT (w/w) 0.2%, 8 weeks): 97.0%
- potency ([2]; 40° C., BHT (w/w) 0.5%, 0 weeks): 96.5%
- potency ([2]; 40° C., BHT (w/w) 0.5%, 2 weeks): 96.1%
- potency ([2]; 40° C., BHT (w/w) 0.5%, 4 weeks): 96.4%
- potency ([2]; 40° C., BHT (w/w) 0.5%, 6 weeks): 95.7%
- potency ([2]; 40° C., BHT (w/w) 0.5%, 8 weeks): 96.1%
- potency ([2]; 40° C., BHT (w/w) 0.5%, 12 weeks): 95.9%
- potency ([2]; 40° C., BHT (w/w) 1.0%, 0 weeks): 95.9%
- potency ([2]; 40° C., BHT (w/w) 1.0%, 2 weeks): 95.4%
- potency ([2]; 40° C., BHT (w/w) 1.0%, 4 weeks): 96.4%
- potency ([2]; 40° C., BHT (w/w) 1.0%, 6 weeks): 95.6%
- potency ([2]; 40° C., BHT (w/w) 1.0%, 8 weeks): 96.5%
- potency ([2]; 40° C., BHT (w/w) 1.0%, 12 weeks): 95.8%
- time to complete equilibration between two isomers [3]: 7 to 8 h
Structure (SMILES): CO[C@H]1C[C@@H]2CC[C@@H](C)[C@@](O)(O2)C(=O)C(=O)N2CCCC[C@H]2C(=O)O[C@H]([C@H](C)C[C@@H]2CC[C@H](n3cnnn3)[C@H](OC)C2)CC(=O)[C@H](C)/C=C(\C)[C@@H](O)[C@@H](OC)C(=O)[C@H](C)C[C@H](C)/C=C/C=C/C=C/1C [zotarolimus, 40-epi-(1-tetrazolyl)-rapamycin]
